Measurements from patent US10253081B2, “Glucagon analogues” (Zealand Pharma A/S, priority 2012, dated 2019).
Where two headings read alike, the source gives them in different places. *1 amine or outer side, *2 acyl side, *3 side chain or, on linkers, in order; H or OH if unused. Where a SMILES comes first, the peptide text is derived from it. Side-chain parts run from the residue outwards. [ ]: non-standard residue; d: D form. The star is where a group is joined. γGlu = O=C(O)[C@H](CCC(=O)[*:2])N[*:1]; Palmitoyl = CCCCCCCCCCCCCCCC(=O)*; Aib = CC(C)(N)C(=O)O

What was measured:
[1] = target: T1, human glucagon receptor (Glucagon-R) (Homo sapiens, UniProt P47871); assay: Glucagon receptor efficacy assay (cAMP AlphaScreen, CHO cells); assay type: cell-based; settings: Table 1A; CHO cells expressing human Glucagon-R, cAMP; read-out: EC50 hGCGR CHO-K1
T1 construct: expressed in transfected cells
How it was run: (§1)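 Stably transfected CHO clones expressing human GLP-1R or glucagon receptor were treated with increasing peptide concentrations for 15 min at room temperature in KRBH containing 0.1 mM IBMX. After lysis, cAMP was quantified by AlphaScreen; EC50 and efficacy relative to GLP-1 or glucagon reference came from curve fitting.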

[2] = target: T2, human glucagon-like peptide 1 receptor (GLP-1R) (Homo sapiens, UniProt P43220); assay: GLP-1 receptor efficacy assay (cAMP AlphaScreen, CHO cells); assay type: cell-based; settings: Table 1A; for EC50: CHO cells expressing human GLP-1-R, cAMP, read-out: EC50 hGLP-1R CHO-K1; for Ratio GLP-1/Glucagon: EC50 [GLP-1R]/EC50 [Glucagon-R]
T2 construct: expressed in transfected cells
How it was run: as §1

[3] = Pharmacokinetic parameters after subcutaneous and intravenous administration to mice; assay type: in vivo; settings: male, mouse, plasma, 20 nmol/kg, C57Bl/6J mice; for half-life: read-out: Terminal half life (converted); for MRT: read-out: Mean Residence Time
Protocol: Pharmacokinetic parameters of the test compounds were determined after subcutaneous and intravenous administration to C57Bl/6J mice.
8 week old male C57Bl/6J mice were obtained from Taconic (Denmark) weighing approximately 20-25 g at time of arrival at the test facility. The mice were caged in European standard cages type III with light cycle of 12-hour dark and 12-hour light (lights on 06.00). Both diet, Altromin 1324 (Altromin, Germany), and water was administered ad libitum during the whole experimental period. The 8-11 week animals were imported to the laboratory at least 7 days before the start up of the experimental procedure in order to assure proper acclimatization. After sampling the mice were euthanized by cervical dislocation.
The compounds were first dissolved in 0.096% aqueous ammonia to a nominal concentration of 2 mg/ml, and then diluted to the desired dosing strength (4 μM) in sterile PBS containing 25 mM phosphate buffer, pH 7.4. Subcutaneous and intravenous injections corresponding to 20 nmol/kg were given. The GLP-1-glucagon dual agonists were administered for subcutaneous dosing in the neck region and via a lateral tail vein for intravenous dosing.
Blood samples (250 μl) were collected from the periorbital plexus at time points 0.5, 2, 4, 6, 12, 16, 20, 24 h for subcutaneous and 10, 30 min, 3, 6, 12, 18, 24 h for intravenous administration into ice-chilled K3EDTA tubes and centrifuged for 5 minutes at 4° C. within 20 minutes of sampling. Plasma (>100 μl) was separated to ice-chilled Micronic tubes, immediately frozen, and kept at −70° C. until analysed for plasma concentration for the respective GLP-1-glucagon compound using LC-MS/MS. Individual plasma concentration-time profiles were analysed by a non-compartmental approach in WinNonLin v6.3 (Pharsight inc, Mountain View, Calif., USA), and the resulting pharmacokinetic parameters determined.

T1 sequence (P47871 26-477): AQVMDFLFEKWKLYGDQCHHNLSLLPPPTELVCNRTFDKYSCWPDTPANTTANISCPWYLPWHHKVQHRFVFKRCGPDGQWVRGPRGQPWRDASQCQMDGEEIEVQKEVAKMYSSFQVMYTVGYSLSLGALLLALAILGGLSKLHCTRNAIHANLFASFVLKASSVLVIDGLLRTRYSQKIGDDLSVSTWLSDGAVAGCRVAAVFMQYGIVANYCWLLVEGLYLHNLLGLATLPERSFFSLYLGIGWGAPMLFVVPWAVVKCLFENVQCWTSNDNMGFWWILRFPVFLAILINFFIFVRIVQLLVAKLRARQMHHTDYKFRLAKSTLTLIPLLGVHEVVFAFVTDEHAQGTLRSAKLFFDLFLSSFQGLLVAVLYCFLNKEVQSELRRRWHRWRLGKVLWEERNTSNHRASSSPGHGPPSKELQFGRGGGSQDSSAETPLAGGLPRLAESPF
T2 sequence (P43220 24-463): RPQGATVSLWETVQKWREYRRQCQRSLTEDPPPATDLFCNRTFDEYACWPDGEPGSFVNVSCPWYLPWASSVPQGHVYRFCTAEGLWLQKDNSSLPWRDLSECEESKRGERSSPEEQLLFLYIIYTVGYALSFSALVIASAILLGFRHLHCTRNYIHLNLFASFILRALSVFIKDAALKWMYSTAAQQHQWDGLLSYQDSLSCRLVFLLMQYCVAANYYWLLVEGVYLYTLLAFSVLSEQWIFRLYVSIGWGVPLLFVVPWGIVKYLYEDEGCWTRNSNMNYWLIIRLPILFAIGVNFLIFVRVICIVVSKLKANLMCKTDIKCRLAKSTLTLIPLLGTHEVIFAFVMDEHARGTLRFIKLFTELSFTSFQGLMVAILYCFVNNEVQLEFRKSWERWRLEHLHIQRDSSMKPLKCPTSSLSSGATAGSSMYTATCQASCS

Row | EC50 [1] | EC50 [2] | Ratio GLP-1/Glucagon [2] | clearance ([3]; IV) | half-life ([3]; IV) | Tmax ([3]; SC) | bioavailability ([3]; SC) | MRT ([3]; SC) | half-life ([3]; SC) | SMILES
1 | 0.54 nM | 0.53 nM | 0.98 | 0.225 mL/min/kg | 6.2 h | 4 h | 64% | 12.2 h | 6.1 h | CCCCCCCCCCCCCCCC(=O)N[C@@H](CCC(=O)NCCCC[C@H](NC(=O)[C@H](CCC(=O)O)NC(=O)[C@H](CC(=O)O)NC(=O)[C@H](CC(C)C)NC(=O)[C@H](Cc1ccc(O)cc1)NC(=O)[C@H](CCCCN)NC(=O)[C@H](CO)NC(=O)[C@H](Cc1ccc(O)cc1)NC(=O)[C@H](CC(=O)O)NC(=O)[C@H](CO)NC(=O)[C@@H](NC(=O)[C@H](Cc1ccccc1)NC(=O)[C@@H](NC(=O)CNC(=O)[C@H](CCC(N)=O)NC(=O)C(C)(C)NC(=O)[C@@H](N)Cc1c[nH]cn1)[C@@H](C)O)[C@@H](C)O)C(=O)N[C@@H](CCCNC(=N)N)C(=O)N[C@@H](C)C(=O)N[C@@H](CCCCN)C(=O)N[C@@H](CC(=O)O)C(=O)N[C@@H](Cc1ccccc1)C(=O)N[C@H](C(=O)N[C@@H](CCC(=O)O)C(=O)N[C@@H](Cc1c[nH]c2ccccc12)C(=O)N[C@@H](CC(C)C)C(=O)N[C@@H](CC(C)C)C(=O)N[C@@H](CO)C(=O)N[C@@H](C)C(=O)O)[C@@H](C)CC)C(=O)O [Compound 14, H-H-Aib-QGTFTSDYSKYLDE-K(Hexadecanoyl-isoGlu)-RAKDFIEWLLSA-OH] (H-H[Aib]QGTFTSDYSKYLDEK([γGlu-Palmitoyl])RAKDFIEWLLSA-OH)
2 | 0.45 nM | 0.27 nM | 0.60 | 0.22 mL/min/kg | 5.5 h | 4 h | 75% | 12.8 h | 8.6 h | CCCCCCCCCCCCCCCC(=O)N[C@@H](CCC(=O)NCCCC[C@H](NC(=O)[C@H](CO)NC(=O)[C@H](CC(=O)O)NC(=O)[C@H](CC(C)C)NC(=O)[C@H](Cc1ccc(O)cc1)NC(=O)[C@H](CCCCN)NC(=O)[C@H](CO)NC(=O)[C@H](Cc1ccc(O)cc1)NC(=O)[C@H](CC(=O)O)NC(=O)[C@H](CO)NC(=O)[C@@H](NC(=O)[C@H](Cc1ccccc1)NC(=O)[C@@H](NC(=O)CNC(=O)[C@H](CCC(N)=O)NC(=O)[C@H](CO)NC(=O)[C@@H](N)Cc1c[nH]cn1)[C@@H](C)O)[C@@H](C)O)C(=O)N[C@@H](C)C(=O)N[C@@H](C)C(=O)N[C@@H](CCC(=O)O)C(=O)N[C@@H](CC(=O)O)C(=O)N[C@@H](Cc1ccccc1)C(=O)N[C@H](C(=O)N[C@@H](CCC(=O)O)C(=O)N[C@@H](Cc1c[nH]c2ccccc12)C(=O)N[C@@H](CC(C)C)C(=O)N[C@@H](CC(C)C)C(=O)N[C@@H](CCCNC(=N)N)C(=O)N[C@@H](C)C(N)=O)C(C)C)C(=O)O [Compound 7, H-HSQGTFTSDYSKYLDS-K(Hexadecanoyl-isoGlu)-AAEDFVEWLLRA-NH2] (H-HSQGTFTSDYSKYLDSK([γGlu-Palmitoyl])AAEDFVEWLLRA-NH2)
3 | 0.35 nM | 0.91 nM | 2.60 | 0.192 mL/min/kg | 4.1 h | 6 h | 52% | 9.8 h | 3.9 h | CCCCCCCCCCCCCCCC(=O)N[C@@H](CCC(=O)NCCCC[C@H](NC(=O)[C@H](CO)NC(=O)[C@H](CC(=O)O)NC(=O)[C@H](CC(C)C)NC(=O)[C@H](Cc1ccc(O)cc1)NC(=O)[C@H](CCCCN)NC(=O)[C@H](CO)NC(=O)[C@H](Cc1ccc(O)cc1)NC(=O)[C@H](CC(=O)O)NC(=O)[C@H](CO)NC(=O)[C@@H](NC(=O)[C@H](Cc1ccccc1)NC(=O)[C@@H](NC(=O)CNC(=O)[C@H](CCC(N)=O)NC(=O)[C@H](CO)NC(=O)[C@@H](N)Cc1c[nH]cn1)[C@@H](C)O)[C@@H](C)O)C(=O)N[C@@H](C)C(=O)N[C@@H](C)C(=O)N[C@@H](Cc1c[nH]cn1)C(=O)N[C@@H](CC(=O)O)C(=O)N[C@@H](Cc1ccccc1)C(=O)N[C@H](C(=O)N[C@@H](CCC(=O)O)C(=O)N[C@@H](Cc1c[nH]c2ccccc12)C(=O)N[C@@H](CC(C)C)C(=O)N[C@@H](CC(C)C)C(=O)N[C@@H](CCCNC(=N)N)C(=O)N[C@@H](C)C(=O)O)C(C)C)C(=O)O [Compound 3, H-HSQGTFTSDYSKYLDS-K(Hexadecanoyl-isoGlu)-AAHDFVEWLLRA-OH] (H-HSQGTFTSDYSKYLDSK([γGlu-Palmitoyl])AAHDFVEWLLRA-OH)
